US8609173B2, “Compositions comprising sweetness enhancers and methods of making them” (Senomyx Inc., priority 2008, dated 2013)

Columns and labels:
External panelists [1] = test: Line scale sensory test, Example 6, fructose as sweetener, pH 7.1; type: in vivo, Human; design: Average Sweetness / Average Bitterness: scale not given here
Experimental: Sensory evaluations were performed using fructose as the sweetener and 3-(4-amino-2,2-dioxide-1H-benzo[c][1,2,6]thiadiazin-5-yloxy)-2′,2′-dimethyl-N-propylpropanamide as the sweetness enhancer, using methods similar to those using sucrose, above. […]

Panelists [2] = test: Paired comparison human taste test, frosted flakes cereal; type: in vivo
Experimental: Frosted Flakes cereals were prepared using the following ingredients and evaluated for sweetness. The sugar frosting contained a reduced amount of sucrose (compared to the “100% sucrose” sugar coated flake cereal) and 15 ppm of 3-(4-amino-2,2-dioxide-1H-benzo[c][1,2,6]thiadiazin-5-yloxy)-2′,2′-dimethyl-N-propylpropanamide.
A Kitchen Aide mixer is equipped with a wire whip attachment and used for mixing sugar and tapioca dextrin. Mix for 5 minutes. Dissolve gum arabic in water using a magnetic stir bar and stir plate. Mix for 1 minute. Add the remaining dry ingredients and compound (if necessary) and heat until the solution reaches 230° F. for 1 minute. The compound was solubilized in ethanol to a 0.30% concentration level before adding to the syrup; this gave a better homogeneity throughout the syrup.
Place weighed amount of corn flakes in the tumbler. Add desired amount of syrup as soon as the syrup is ready. Tumble for 30 minutes while heating the flakes with a heat gun. Further dry the flakes in the convection oven for 200° F. for 50 minutes.
Panelists evaluated the two cereal samples in a paired comparison taste test procedure and were instructed to select the sweeter of the two samples.

Panelists [3] = test: Paired comparison human taste test, chocolate milk; type: in vivo
Experimental: Chocolate beverage powder can be prepared using, for example, the following ingredients and reconstituted in milk.
A KitchenAide mixer is equipped with a wire whip attachment and used for mixing sugar and salt for 5 seconds. Lecithin is added and the resulting mixture is mixed for an additional 5 seconds. Cocoa, maltodextrin, and vanillin are added and the mixture is mixed for another 10 seconds.
Chocolate milk preparations were prepared by combining a chocolate beverage mixture with milk and the appropriate amount of sugar, or sugar and 3-(4-amino-2,2-dioxide-1H-benzo[c][1,2,6]thiadiazin-5-yloxy)-2′,2′-dimethyl-N-propylpropanamide. 75.0 grams of Full Sugar Chocolate Beverage Powder was mixed into 250 mls of cold (40° F.) 2% lowfat milk and mixed with a wire whip until dissolved. 45.5 grams of the 50% Sugar Chocolate Beverage Powder was mixed into 250 mls of cold (40° F.) 2% lowfat milk and mixed with a wire whip until the powder was dissolve. The Compound A was dissolved into a 0.10% concentration level in propylene glycol and added to the chocolate milk, mixed with a wire whip until homogenous, about 2 minutes.

External panelists [4] = test: Line scale (15-point sucrose equivalence) sensory test, Example 3A/3C, sucrose or LSB, pH 7.1; type: in vivo, Human; design: key to Average Sweetness / Average Bitterness: 15-point scale: 0 = 0% sucrose to 15 = 15% sucrose; references = 5
Experimental: Several types of sensory tests were used to determine the efficacy of 5-(neopentyloxy)-1H-benzo[c][1,2,6]thiadiazin-4-amino-2,2-dioxide in enhancing sweetness of sucrose. Two types of tests were conducted: • 1) Sensory scaling tests were performed using a 15-point percent sucrose equivalence scale for sweetness in order to evaluate sweetness enhancement 5-(neopentyloxy)-1H-benzo[c][1,2,6]thiadiazin-4-amino-2,2-dioxide in sucrose, or in fructose. • 2) Paired comparison tests (2-alternative forced choice difference tests) were used to determine sweetness equivalence for solutions of sucrose vs. 5-(neopentyloxy)-1H-benzo[c][1,2,6]thiadiazin-4-amino-2,2-dioxide or buffer vs. 5-(neopentyloxy)-1H-benzo[c][1,2,6]thiadiazin-4-amino-2,2-dioxide. Stimuli:
Tests were performed with sucrose or fructose. Sweetener was evaluated with and/or without 5-(neopentyloxy)-1H-benzo[c][1,2,6]thiadiazin-4-amino-2,2-dioxide at the appropriate concentration(s).
5-(Neopentyloxy)-1H-benzo[c][1,2,6]thiadiazin-4-amino-2,2-dioxide was prepared as a concentrated stock solution in ethanol to ensure dissolution of the compound. Therefore, all taste solutions contained 0.1% ethanol final concentration. Samples without compound also contained 0.1% ethanol. Low sodium phosphate buffer consists of 0.3 mM KCl, 0.5 mM Na2HPO4, and 0.175 mM KH2PO4.
In scaling test situations, the samples were rated on a 15-point scale for sweetness, ranging from 0=0% sucrose to 15=15% sucrose. To evaluate attributes other than sweetness, references are used for training and are prepared according to the table below. Note that each reference was given a score of 5 on the 15-point scale.
External panelists were used for the tests. The exact number of panelists is reported with test results. Subjects were instructed not to eat or drink anything (except water) for at least 1 hour prior to the test.
Panelists rinsed their mouths with water prior to starting any test. Samples were presented to panelists in a randomized, counterbalanced order. Panelists rinsed with water and had up to a 1 minute delay to clear the mouth of any tastes after each evaluation. Two replicates of each test were performed, unless otherwise noted.

[5] = 33% Reduced Sucrose Frosted Flakes + 15 ppm compound chosen, 14 panelists

## CCCNC(=O)C(C)(C)COc1cccc2c1C(N)=NS(=O)(=O)N2 [3-(4-amino-2,2-dioxide-1H-benzo[c][1,2,6]thiadiazin-5-yloxy)-2′,2′-dimethyl-N-propylpropanamide]
External panelists [1]; 25 μM compound in 6% fructose, LSB, pH 7.1
  off tastes: no significant off tastes
External panelists [1]; 30 μM (10.6 ppm) compound, no fructose, pH 7.1, n = 30
  Average Sweetness: 0.6
External panelists [1]; 30.0 μM and 40 μM compound
  off tastes: no significant off tastes
External panelists [1]; 30 μM compound, no fructose, n = 30
  Average Bitterness: 0.4
External panelists [1]; 30.0 μM compound, p>0.10
  Sweetness vs fructose solutions (conclusion): not significantly different in sweetness compared to 0% and 2% fructose respectively
External panelists [1]; 40 μM (14.2 ppm) compound, no fructose, pH 7.1, n = 30
  Average Sweetness: 1.1
External panelists [1]; 40 μM compound, no fructose, n = 30
  Average Bitterness: 0.6
External panelists [1]; 40 μM compound, p>0.10
  Sweetness vs fructose solutions (conclusion): not significantly different in sweetness compared to 0% and 2% fructose respectively
External panelists [1]; 100 μM compound in 6% fructose, LSB, pH 7.1
  off tastes: no significant off tastes
External panelists [1]; 6% Fructose + 25 μM (8.9 ppm) compound, pH 7.1, n = 26
  Average Sweetness: 7.8
External panelists [1]; 6% Fructose + 25 μM compound, n = 26
  Average Bitterness: 0.2
External panelists [1]; 6% Fructose + 100 μM (35.4 ppm) compound, pH 7.1, n = 14
  Average Sweetness: 9.2
External panelists [1]; 6% Fructose + 100 μM compound, n = 14
  Average Bitterness: 0.3
External panelists [1]; 6% fructose + 25 μM compound, p>0.05
  Sweetness vs fructose solutions (conclusion): significantly sweeter than 6% fructose
External panelists [1]; 6% fructose + 100 μM compound, p>0.10
  Sweetness vs fructose solutions (conclusion): not significantly different than 8% or 9% fructose
Panelists [2]; [5]
  Sample selected as sweeter by panelists, Test 1: 6
  Sample selected as sweeter by panelists, Test 2: 9
  Sample selected as sweeter by panelists, Test 3: 9
Panelists [2]; 33% Reduced Sucrose Frosted Flakes + 15 ppm compound chosen, n = 42
  Sample selected as sweeter by panelists, Total: 24
Panelists [2]; 33% Reduced Sucrose Frosted Flakes + 15 ppm compound vs 100% Sucrose Frosted Flakes
  Sweetness comparison (conclusion): not significantly different in sweetness
Panelists [3]; Chocolate Milk with 50% Sugar + compound (7 ppm/(20 μM)) chosen, vs 100% Sugar, n = 51
  Sample selected as sweeter by panelists, Total: 28
Panelists [3]; chocolate milk with 50% Sugar + compound (7 ppm/(20 μM)) vs full sugar, p>0.10
  Sweetness comparison (conclusion): not significantly different in sweetness

## OC[C@H]1O[C@@](CO)(O[C@H]2O[C@H](CO)[C@@H](O)[C@H](O)[C@H]2O)[C@@H](O)[C@@H]1O [Sucrose, sucrose]
External panelists [4]; 2% Sucrose, Table 10, n = 14
  Average Sweetness: 2.1
External panelists [4]; 2% Sucrose, Table 12, n = 14
  Average Bitterness: 0.1
External panelists [4]; 4% Sucrose, Table 10, n = 14
  Average Sweetness: 3.8
External panelists [4]; 4% Sucrose, Table 12, n = 14
  Average Bitterness: 0.0
External panelists [4]; 6% Sucrose, Table 10, n = 14
  Average Sweetness: 6.0
External panelists [4]; 6% Sucrose, Table 11, n = 14
  Average Sweetness: 7.3
External panelists [4]; 6% Sucrose, Table 12, n = 14
  Average Bitterness: 0.4
External panelists [4]; 6% Sucrose, Table 13, n = 14
  Average Bitterness: 0.4
External panelists [4]; 6% Sucrose, pH 7.1, n = 32
  Average Bitterness: 0.3
  Average Sweetness: 6.5
External panelists [4]; 8% Sucrose, Table 11, n = 14
  Average Sweetness: 8.6
External panelists [4]; 8% Sucrose, Table 13, n = 14
  Average Bitterness: 0.4
External panelists [4]; 8% Sucrose, pH 7.1, n = 32
  Average Bitterness: 0.3
  Average Sweetness: 7.9
External panelists [4]; 9% Sucrose, Table 11, n = 14
  Average Sweetness: 9.4
External panelists [4]; 9% Sucrose, Table 13, n = 14
  Average Bitterness: 0.6
External panelists [4]; 9% Sucrose, pH 7.1, n = 32
  Average Bitterness: 0.2
  Average Sweetness: 8.9
External panelists [4]; 10% Sucrose, Table 11, n = 14
  Average Sweetness: 9.6
External panelists [4]; 10% Sucrose, Table 13, n = 14
  Average Bitterness: 0.2
External panelists [4]; 10% Sucrose, pH 7.1, n = 32
  Average Bitterness: 0.3
  Average Sweetness: 9.3
